Test results from ChEMBL document CHEMBL3797130, “Development of novel proteasome inhibitors based on phthalazinone scaffold” (Bioorg Med Chem Lett, 2016).
Active and inactive are the calls of the source. No cut-off for these calls is given here.

What was measured:
[1] = target: T1, Proteasome Macropain subunit MB1 (Homo sapiens) (UniProt P28074); assay: Inhibition of chymotrypsin-like activity of 20S human proteasome assessed as […] at 25 ug/ml using Promega proteasome-Glo-3 substrate incubated for 15 mins by luminescence assay
T1 sequence (whole entry): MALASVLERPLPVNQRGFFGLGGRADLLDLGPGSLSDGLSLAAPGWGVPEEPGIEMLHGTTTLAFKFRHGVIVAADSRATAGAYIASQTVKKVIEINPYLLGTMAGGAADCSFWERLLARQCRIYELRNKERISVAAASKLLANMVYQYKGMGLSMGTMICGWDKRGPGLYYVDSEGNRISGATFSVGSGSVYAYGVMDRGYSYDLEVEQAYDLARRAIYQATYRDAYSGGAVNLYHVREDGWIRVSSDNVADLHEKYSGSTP

[2] = target: T2, Proteasome Macropain subunit MB1 (Homo sapiens, UniProt P28074); assay: Inhibition of chymotrypsin-like activity of 20S human proteasome assessed as […] at using Promega proteasome-Glo-3 substrate incubated for 15 mins by luminescence assay
T2 sequence (P28074 whole entry): T1 sequence (whole entry)

inhibition [1] | IC50 [2] | SMILES
35.8% |  | CCCCn1nc(-c2ccc(OCCCC[P+](c3ccccc3)(c3ccccc3)c3ccccc3)cc2)c2ccccc2c1=O
12.1% |  | CCCn1nc(-c2ccc(OCCCC[P+](c3ccccc3)(c3ccccc3)c3ccccc3)cc2)c2ccccc2c1=O
94.3% | 14.2 µM | CNc1ccc(-n2nc(-c3ccc(OCCCC[P+](c4ccccc4)(c4ccccc4)c4ccccc4)cc3)c3ccccc3c2=O)cc1
10.3% |  | CCN(CC)c1ccc(-n2nc(-c3ccc(OCCCC[N+](CC)(CC)CC)cc3)c3ccccc3c2=O)cc1
inactive |  | CCN(CC)c1ccc(-n2nc(-c3ccc(OCCCCBr)cc3)c3ccccc3c2=O)cc1
13.2% |  | CCN(CC)c1ccc(-n2nc(-c3ccc(OCCCCN4CCCC4)cc3)c3ccccc3c2=O)cc1
5.1% |  | CCN(CC)c1ccc(-n2nc(-c3ccc(OCCCCN4CCOCC4)cc3)c3ccccc3c2=O)cc1
48.2% | 23 µM | O=c1c2ccccc2c(-c2ccc(OCCCC[P+](c3ccccc3)(c3ccccc3)c3ccccc3)cc2)nn1CC1CC1
98.7% | 13.8 µM | O=c1c2ccccc2c(-c2ccc(OCCCC[P+](c3ccccc3)(c3ccccc3)c3ccccc3)cc2)nn1-c1ccc2ccccc2c1
93.2% | 17.6 µM | O=c1c2ccccc2c(-c2ccc(OCCCC[P+](c3ccccc3)(c3ccccc3)c3ccccc3)cc2)nn1-c1cccs1
8% |  | CCN(CC)c1ccc(-n2nc(-c3ccc(OCCCCN4CCCCC4)cc3)c3ccccc3c2=O)cc1
80.9% | 11.9 µM | O=c1c2ccccc2c(-c2ccc(OCCCC[P+](c3ccccc3)(c3ccccc3)c3ccccc3)cc2)nn1Cc1ccccc1
99.1% | 10.2 µM | CCN(CC)c1ccc(-n2nc(-c3ccc(OCCCC[P+](c4ccccc4)(c4ccccc4)c4ccccc4)cc3)c3ccccc3c2=O)cc1
98.5% | 13.3 µM | CCN(CC)c1ccc(-n2nc(-c3ccc(OCCCC[P+](C4CCCCC4)(C4CCCCC4)C4CCCCC4)cc3)c3ccccc3c2=O)cc1
inactive |  | Cn1nc(-c2ccc(OCCCC[P+](c3ccccc3)(c3ccccc3)c3ccccc3)cc2)c2ccccc2c1=O
52.4% | 26 µM | CC(C)Cn1nc(-c2ccc(OCCCC[P+](c3ccccc3)(c3ccccc3)c3ccccc3)cc2)c2ccccc2c1=O
5.8% |  | CCN(CC)c1ccc(-n2nc(-c3ccc(OCCCC[n+]4ccn(C)c4)cc3)c3ccccc3c2=O)cc1
84.9% | 16.1 µM | O=c1c2ccccc2c(-c2ccc(OCCCC[P+](c3ccccc3)(c3ccccc3)c3ccccc3)cc2)nn1CC1CCCCC1
8.6% |  | CCN(CC)c1ccc(-n2nc(-c3ccc(OCCCC[n+]4ccccc4)cc3)c3ccccc3c2=O)cc1
19.6% |  | CCN(CC)c1ccc(-n2nc(-c3ccc(OCCCCP(c4ccccc4)c4ccccc4)cc3)c3ccccc3c2=O)cc1
99.5% | 9.88 µM | O=c1c2ccccc2c(-c2ccc(OCCCC[P+](c3ccccc3)(c3ccccc3)c3ccccc3)cc2)nn1-c1ccccc1
inactive |  | CCn1nc(-c2ccc(OCCCC[P+](c3ccccc3)(c3ccccc3)c3ccccc3)cc2)c2ccccc2c1=O
70.5% | 21.5 µM | O=c1c2ccccc2c(-c2ccc(OCCCC[P+](c3ccccc3)(c3ccccc3)c3ccccc3)cc2)nn1CC1CCC1
